In brackets after ≈: the same amount, converted by molar mass. Several values for one entry are separate records, joined by “and”; a condition that tells them apart may be missing. Equal values may be shown once.
Legend:
Rattus norvegicus [1] = conditions: for NOEL / LOEL: Hershberger
Mus musculus = conditions: for LD50: acute
Rattus norvegicus [2] = conditions: for LD50 / LC50: acute
Rattus norvegicus [3] = conditions: subchronic; duration: 13 weeks; oral; diet; M/F; Fischer 344; Deaths + Clinical Observation: Soft stool, Diarrhea Redness around anus + Body Weight Changes: decrease + Food Consumption: decrease + Blood…
[4] = chronic, duration: 103 weeks, inhalation, Fischer 344
[5] = duration: 10 days, injection, subcutaneous, Fischer 344, active + Antiandrogenic + anti-androgenic
[6] = subchronic, duration: 6 weeks, oral, gavage, F, B6C3F1
[7] = subchronic, duration: 6 weeks, oral, gavage, M, B6C3F1
[8] = subchronic, duration: 6 weeks, oral, gavage, F, Osborne-Mendel
[9] = subchronic, duration: 6 weeks, oral, gavage, M, Osborne-Mendel
[10] = repeat dose other, inhalation, Fischer 344
[11] = short-term, duration: 14 days, oral, diet, B6C3F1
[12] = subchronic, duration: 13 weeks, oral, diet, B6C3F1
[13] = chronic, duration: 103 weeks, oral, diet, Fischer 344
[14] = short-term, duration: 14 days, oral, diet, Fischer 344
[15] = subchronic, duration: 13 weeks, oral, diet, Fischer 344
[16] = duration: 10 days, injection, subcutaneous, Sprague-Dawley, active + Androgenic + androgenic
[17] = duration: 10 days, oral, gavage, Wistar, active + Androgenic + androgenic
[18] = duration: 10 days, oral, gavage, wistar, active + Androgenic + androgenic

Cl.N#Cc1ccc(C2CCCc3cncn32)cc1 (configuration not stated)
NOEL (Rattus norvegicus [1]; duration: 7 days, oral, gavage, Wistar, inactive + Negative + anti-androgenic + high dose decreased body wt but no effect on PPS or AST): 6 mg/kg-day

CCCCCCCCCCCCCCC1CO1 (configuration not stated) [1,2-Epoxyhexadecane]
LOAEL (Mus musculus; subchronic, duration: 13 weeks, dermal, B6C3F1): 125 mg/kg-day | LD50 (Rattus norvegicus [2]; dermal, occlusive, Sprague-Dawley): 2000 mg/kg | LD50 (Rattus norvegicus [2]; oral, gavage, Sprague-Dawley): > 5000 mg/kg | LOAEL (Rattus norvegicus [2]; subchronic, duration: 90 days, dermal, Fischer 344): 125 mg/kg-day

CCCCCCCCCCCCCCCCCCN [1-Octadecanamine]
LD50 (Mus musculus; oral, gavage): 1000 mg/kg | LD50 (Rattus norvegicus [2]; oral, gavage): 1000 mg/kg and > 2000 mg/kg | LD50 (Rattus norvegicus [2]; oral, gavage, Sprague-Dawley): 4800 mg/kg | LD50 (Rattus norvegicus [2]; oral, gavage, Wistar): ≥ 2000 mg/kg

C=CC [1-Propene]
NOAEL (Mus musculus; chronic, duration: 14 weeks, inhalation, B6C3F1): 17200 mg/m3 | NOAEL (Mus musculus; chronic, duration: 78 weeks, inhalation, Swiss): ≥ 8610 mg/m3 | NOAEL (Mus musculus; chronic, duration: 103 weeks, inhalation, B6C3F1): ≥ 17200 mg/m3 | LC50 (Rattus norvegicus [2]; inhalation, Sprague-Dawley): > 112000 mg/m3 | NOAEL (Rattus norvegicus [2]; chronic, duration: 14 weeks, inhalation, Fischer 344): 17200 mg/m3 | LOAEL (Rattus norvegicus [2]; [4]): 17200 mg/m3 | NOAEL (Rattus norvegicus [2]; [4]): 8610 mg/m3 | NOAEL (Rattus norvegicus [2]; chronic, duration: 104 weeks, inhalation, Sprague-Dawley): ≥ 8610 mg/m3 | NOAEL (Rattus norvegicus [2]; short-term, duration: 4 weeks, inhalation, Fischer 344): 17200 mg/m3

O=C(c1ccc(O)cc1)c1ccc(O)cc1O [2,4,4'-Trihydroxybenzophenone]
LOEL (Rattus norvegicus [1]; [5]): 300 mg/kg-day | NOEL (Rattus norvegicus [1]; [5]): 100 mg/kg-day

O=S1(=O)CC=CC1 [2,5-Dihydrothiophene 1,1-dioxide]
LOAEL (Mus musculus; [6]): 316 mg/kg-day | NOAEL (Mus musculus; [6]): 178 mg/kg-day | LOAEL (Mus musculus; [7]): 1000 mg/kg-day | NOAEL (Mus musculus; [7]): 562 mg/kg-day | LD50 (Rattus norvegicus [2]; oral, gavage, Sprague-Dawley): 2880 mg/kg | NOAEL (Rattus norvegicus [2]; reproduction developmental, duration: 28 days, oral, gavage, Crj:CD, generation: F0): 75 mg/kg-day | NOAEL (Rattus norvegicus [2]; reproduction developmental, duration: 28 days, oral, gavage, Crj:CD, generation: F1): 25 mg/kg-day | LOAEL (Rattus norvegicus [2]; [8]): 178 mg/kg-day | NOAEL (Rattus norvegicus [2]; [8]): 100 mg/kg-day | LOAEL (Rattus norvegicus [2]; [9]): 562 mg/kg-day | NOAEL (Rattus norvegicus [2]; [9]): 316 mg/kg-day

C=CC(=O)OCCN(C)C [2-(Dimethylamino)ethyl acrylate]
LD50 (Mus musculus; injection, Intraperitoneal, NMRI): 200 mg/kg | LC50 (Rattus norvegicus [2]; Inhalation, Sprague-Dawley): 0.066 mg/L (≈ 0.461 µM) | LD50 (Rattus norvegicus [2]; dermal): 891 mg/kg | LD50 (Rattus norvegicus [2]; dermal, semiocclusive, Sprague-Dawley): 419 mg/kg | LC50 (Rattus norvegicus [2]; inhalation): 0.22 mg/L and < 0.352 mg/L | LC50 (Rattus norvegicus [2]; inhalation, Wistar): 0.972 mg/L (≈ 6.79 µM) | LD50 (Rattus norvegicus [2]; injection, Intraperitoneal): 183 mg/kg | LD50 (Rattus norvegicus [2]; oral): 533 mg/kg | NOAEL (Rattus norvegicus [2]; developmental, oral, gavage, Crj:CD): 30 mg/kg-day | NOAEL (Rattus norvegicus [2]; reproduction developmental, duration: 43 days, oral, gavage, Sprague-Dawley): 20 mg/kg-day | NOAEL (Rattus norvegicus [2]; reproduction developmental, duration: 43 days, oral, gavage, Sprague-Dawley, generation: F0): 100 mg/kg-day | NOAEL (Rattus norvegicus [2]; subchronic, duration: 13 weeks, oral, gavage, Sprague-Dawley): 10 mg/kg-day

Clc1ccc(Cl)c(C(Cl)(Cl)Cl)n1 [3,6-Dichloro-2-(trichloromethyl)pyridine]
NOAEL (Mus musculus; repeat dose other, inhalation, B6C3F1): 3.47 mg/m3 | LD50 (Rattus norvegicus [2]; oral, gavage): ≥ 1000 mg/kg and ≤ 2000 mg/kg | LOAEL (Rattus norvegicus [2]; [10]): 14.7 mg/m3 | NOAEL (Rattus norvegicus [2]; [10]): 3.47 mg/m3

CCCCN(CCCC)c1cccc(O)c1 [3-(Dibutylamino)phenol]
NOEL (Rattus norvegicus [1]; duration: 10 days, oral, gavage, Wistar, inactive + Negative + Negative + anti-androgenic + negative): 300 mg/kg-day

Nc1ccc(C=Cc2ccc(N)cc2S(=O)(=O)[O-])c(S(=O)(=O)[O-])c1.[Na+].[Na+] [4,4'-Diamino-2,2'-stilbenedisulfonic acid, disodium salt]
LOAEL (Mus musculus; [11]): 50000 ppm | NOAEL (Mus musculus; [11]): 25000 ppm | LOAEL (Mus musculus; [12]): 4920 mg/kg-day | NOAEL (Mus musculus; [12]): 2460 mg/kg-day | LD50 (Rattus norvegicus [2]; oral, gavage, Wistar): > 5000 mg/kg | LOAEL (Rattus norvegicus [2]; [13]): 1950 mg/kg-day | NOAEL (Rattus norvegicus [2]; [13]): 975 mg/kg-day | LOAEL (Rattus norvegicus [2]; [14]): 50000 ppm | NOAEL (Rattus norvegicus [2]; [14]): 25000 ppm | LOAEL (Rattus norvegicus [2]; [15]): 4800 mg/kg-day | NOAEL (Rattus norvegicus [2]; [15]): 2400 mg/kg-day | NOEL (Rattus norvegicus [3]): < 600 mg/kg-day

NNS(=O)(=O)c1ccc(Oc2ccc(S(=O)(=O)NN)cc2)cc1 [4,4'-Oxybis(benzenesulfohydrazide)]
LD50 (Mus musculus; injection, Intraperitoneal): > 5000 mg/kg | LD50 (Rattus norvegicus [2]; oral): 2300 mg/kg | LD50 (Rattus norvegicus [2]; oral, albino): > 5200 mg/kg | LOAEL (Rattus norvegicus [2]; chronic, duration: 4 months, oral, gavage): 36 mg/kg-day

O=[N+]([O-])c1ccc(O)cc1 [4-Nitrophenol]
LEL (Rattus norvegicus [1]; uterotrophic, duration: 7 days, injection, subcutaneous, Active): 10 mg/kg-day

C[C@]12C=CC3=C4CCC(=O)C=C4CC[C@H]3[C@@H]1CC[C@@H]2O [17beta-Trenbolone]
LOEL (Rattus norvegicus [1]; [16]): 200 mg/kg-day | NOEL (Rattus norvegicus [1]; [16]): 100 mg/kg-day | LOEL (Rattus norvegicus [1]; duration: 10 days, oral, gavage, Sprague-Dawley, androgenic): 40 mg/kg-day | LOEL (Rattus norvegicus [1]; [17]): 40 mg/kg-day | NOEL (Rattus norvegicus [1]; [17]): 8 mg/kg-day | LOEL (Rattus norvegicus [1]; [18]): 40 mg/kg-day | NOEL (Rattus norvegicus [1]; [18]): 8 mg/kg-day

From EPA's ToxValDB 9.5
